Measurements as given in PMC9598407, “Identification of Staphylococcus aureus Penicillin Binding Protein 4 (PBP4) Inhibitors” (Antibiotics, 2022).
Values after ≈ are worked out from the molar mass of the structure shown.

What was measured:
S. aureus USA300 = assay: Minimum inhibitory concentration (MIC) testing, strain USA300; assay type: cell-based, Staphylococcus aureus; settings: for MIC: Staphylococcus aureus, USA300, read-out: Minimum inhibitory concentration
Experimental: (§1) The approach used was to initially search for compounds that reverse the antibiotic resistance profile of wild type cells to that of a pbp4 mutant. To define screening conditions three strains were employed, a wild type USA300 MRSA strain, an isogenic pbp4 deletion strain, and a complemented strain harboring a plasmid wildtype pbp4 copy. The antibiotic susceptibility profile of each strain was measured to determine the magnitude with which PBP4 affects resistance to various antibiotics (Table 1). […]. We anticipated that the greater dynamic range of the latter could provide a means to reliably screen for agents that inhibit PBP4 function. […].
(§2) S. aureus strain USA300 is a predominant cause of U.S. community-associated MRSA infections, whereas strain COL is a commonly studied hospital-associated MRSA strain. The S. aureus USA300 pbp4-null strain (USA300Δpbp4) and PBP4 complementation strain (USA300∆pbp4 pPBP4) have been previously described. Strain COLn is a laboratory derived tetracycline susceptible derivative of COL, whereas COLnex is a methicillin susceptible COLn derivative that has been cured of SCCmec thereby removing the mecA, which encodes PBP2a, and has been previously described. Strain CRB is a well-studied MRSA COLnex derivative that contains two amino acid substitutions (E183A and F241R) near the PBP4 active site and a 36-bp duplication 290-bp upstream of the pbp4 open reading frame leading to 20–40-fold overexpression of the gene. All strains were grown in Mueller Hinton (MH) broth at 37 °C, as indicated. Penicillin, streptomycin, ciprofloxacin, mupirocin, meropenem, and mitomycin C were purchased from Fisher Scientific (Waltham, MA, USA), whereas ceftobiprole was obtained from MedChemExpress LLC (Monmouth Junction, NJ, USA). The 30,000-member […]-EXP small molecule chemical library (Blocks 3–5) used in these studies was purchased from ChemBridge Corporation (San Diego, CA, USA).

S. aureus USA300∆pbp4 = assay: MIC testing, strain USA300∆pbp4; assay type: cell-based, Staphylococcus aureus; settings: Staphylococcus aureus, USA300, read-out: Minimum inhibitory concentration
Experimental: as §1, §2

[1] = system: S. aureus USA300∆pbp4 pPBP4; assay: microbe, parasite or virus in culture; assay type: cell-based; settings: Staphylococcus aureus, USA300, read-out: Minimum inhibitory concentration
S. aureus COLnex = assay: MIC testing, strain COLnex; assay type: cell-based; settings: Staphylococcus aureus, read-out: Minimum inhibitory concentration
Experimental: (§3) To further evaluate their potential PBP4 inhibitor activity, prioritized compounds were tested for their ability to reverse PBP4 mediated antibiotic resistance in another S. aureus background using three isogenic strains that became available during our study (generous gift from Dr. S. Chatterjee; University of Maryland). These strains included: (1) COLnex, which is a methicillin susceptible strain, (2) CRB, a methicillin/ceftobiprole-resistant strain of COLnex that overproduces PBP4, and (3) CRB∆pbp4, a methicillin susceptible strain of CRB lacking the pbp4 gene.
as §2

S. aureus CRB = assay: MIC testing, strain CRB (PBP4 overproducer); assay type: cell-based, Staphylococcus aureus; settings: for MIC: Staphylococcus aureus, read-out: Minimum inhibitory concentration, strain CRB
Experimental: as §3, §2

S. aureus CRB∆pbp4 = assay: MIC testing, strain CRB∆pbp4; assay type: cell-based; settings: Staphylococcus aureus, read-out: Minimum inhibitory concentration
Experimental: as §3, §2

S. aureus strain CRB = assay: Fractional inhibitory concentration checkerboard, ceftobiprole + putative PBP4 inhibitor, strain CRB; assay type: cell-based, Staphylococcus aureus; settings: Staphylococcus aureus, read-out: CRB Alone BPR (ceftobiprole MIC alone)
Experimental: (§4) Fractional inhibitory testing was performed in checkerboard format to determine whether putative PBP4 inhibitors potentiated the antimicrobial effects of β-lactams toward S. aureus strains USA300 and CRB, as previously described. To do so, in triplicate 10^5 CFU of each strain (10 µL) was added to individual wells of a microtiter plate containing 90 µL MH media. […] Plates were incubated at 37 °C for 16–20 h and the lowest concentration of each test agent that inhibited bacterial growth alone or in combination was determined by the naked eye. The fractional inhibitory concentration (FIC) index was calculated using the formula: FIC of A (MIC of drug A in combination/MIC of drug A alone) + FIC B ([…]/MIC of drug B alone). A synergistic interaction was defined as a FICI value of less than 0.5, an additive interaction was defined as a FICI value between 0.5 and 1.0, an indifferent interaction was defined as a FICI value between 1.0 and 4.0, and an antagonistic interaction was defined as a FICI value of more than 4.0 [46].

[2] = system: S. aureus strain CRB∆pbp4; assay: Fractional inhibitory concentration checkerboard, ceftobiprole + putative PBP4 inhibitor, strain CRB∆pbp4; assay type: cell-based, Staphylococcus aureus; settings: Staphylococcus aureus, read-out: CRB∆pbp4 Alone BPR (ceftobiprole MIC alone)
S. aureus strain USA300 = assay: microbe, parasite or virus in culture; assay type: cell-based; settings: Staphylococcus aureus, USA300, read-out: Ceftobiprole resistance (MIC) without compound
Experimental: as §4

SMILES	MIC (S. aureus USA300)	MIC (S. aureus USA300∆pbp4)	MIC [1]	MIC (S. aureus COLnex)	Fold difference in ceftobiprole resistance (S. aureus CRB; PBP4-overexpressor CRB versus CRB∆pbp4)	MIC (S. aureus CRB)	MIC (S. aureus CRB∆pbp4)	MIC (S. aureus strain CRB)	MIC [2]	MIC (S. aureus strain USA300)	Fold increase in resistance provided by PBP4 (S. aureus USA300; USA300 versus USA300∆pbp4 MIC)	Minimum inhibitory concentration (S. aureus USA300; strain USA300)
Nc1nc(/C(=N/O)C(=O)N[C@@H]2C(=O)N3C(C(=O)O)=C(/C=C4\CCN([C@@H]5CCNC5)C4=O)CS[C@H]23)ns1 [BPR, ceftobiprole]	0.5 µg/mL (≈ 0.935 µM)	0.25 µg/mL (≈ 0.468 µM)	0.5 µg/mL (≈ 0.935 µM)	0.25 µg/mL (≈ 0.468 µM)	512 fold	128 µg/mL (≈ 239 µM)	0.25 µg/mL (≈ 0.468 µM)	128 µg/mL	0.25 µg/mL	1 µg/mL		
C[C@@H](O)[C@H]1C(=O)N2C(C(=O)O)=C(S[C@@H]3CN[C@H](C(=O)N(C)C)C3)[C@H](C)[C@H]12 [MER, meropenem]	4 µg/mL (≈ 10.4 µM)	2 µg/mL (≈ 5.22 µM)	4 µg/mL (≈ 10.4 µM)	1 µg/mL (≈ 2.61 µM)		64 µg/mL (≈ 167 µM)	1 µg/mL (≈ 2.61 µM)				2 fold	4 µg/mL (≈ 10.4 µM)
